Experiment [1] has as its target T1, EGFR (Homo sapiens, UniProt P00533).
T1 construct: made in house; host or cells: baculovirus expression system
Briefly: EGFR substrate phosphorylation assay (HTRF). The experiment is classed as biochemical. The method, then: (§1) Compounds of the present invention were tested for EGFR and ErbB-2 protein tyrosine kinase inhibitory activity in substrate phosphorylation assays using enzymes purified from a baculovirus expression system. Reagent production was conducted essentially as described in Brignola, P. S., et al, (2002) J. Biol. Chem. 277(2):1576-1585.
(§2) The method measures the ability of the isolated enzyme to catalyse the transfer of the gamma-phosphate from ATP onto the tyrosine residue of a biotinylated synthetic peptide referenced “Peptide C” in Brignola, P. S., et al, (2002) J. Biol. Chem. 277(2):1576-1585. The extent of tyrosine phosphorylation was measured using an anti-phosphotyrosine antibody, and quantified by homogenous time-resolved fluorescence (HTRF).
(§3) Reactions were performed in black 384-well polystyrene flat-bottom plates in a final volume of 20 μL. Assays were performed by adding 10 μL of each of the following solutions, Substrate Mix and Enzyme Mix: The Substrate Mix contained 100 mM 3-[N-morpholino]propanesulfonic acid (MOPS) (pH 7.5), 2 mM MnCl2, 20 μM ATP, 0.01% Tween-20, 0.1 mg/mL (BSA), 0.8 uM peptide substrate, and 1 mM dithiothreitol. The Enzyme Mix contained 100 mM MOPS (pH7.5); 0.01% Tween-20; 0.1 mg/mL BSA, and either 0.8 nM EGFR, 10 nM ErbB2, or 1 nM ErbB4. The Enzyme Mix was added to the compound plates and the plates were incubated at 20° C. for 1 hr. The reactions were then started by adding the Substrate Mix.
(§4) After initiating the reaction with the method described above, the reactions were allowed to proceed for 90 minutes at 20° C. The reactions were then terminated by the addition of 20 μL 100 mM EDTA to each well. 40 μL/well of HTRF detection mix were added to the assay plates. The final concentrations of the detection reagents were: 100 mM HEPES (pH7.5), 0.1 mg/mL BSA, 15 nM streptavidin-labeled allophycocyanin (PerkinElmer), and 1 nM europium-labeled anti-phosphotyrosine antibody (Perkin Elmer). Assay plates were left unsealed and were counted in a Wallac Multilabel Counter 1420 (PerkinElmer).
(§5) Compounds under analysis were dissolved in dimethylsulfoxide (DMSO) to 1.0 mM and serially diluted 1 to 3 with DMSO through twelve dilutions. 1 μL of each concentration was transferred to the corresponding well of an assay plate. This creates a final compound concentration range from 0.00027 to 47.6 μM.
(§6) The data for dose responses were plotted as % Inhibition calculated with the data reduction formula 100*(1-(U1−C2)/(C1−C2)) versus concentration of compound where U1 is the unknown value, C1 is the average control value obtained for 4.76% DMSO, and C2 is the average control value obtained for 0.035 M EDTA. Data were fitted with a curve described by:
(§7) where Vmax is the upper asymptote, Y2 is the Y intercept, and K is the IC50. The results for each compound were recorded as pIC50s, calculated as follows: […]
For orientation: Time-resolved FRET reads energy transfer from a long-lived donor to a nearby acceptor.

Experiment [2] addresses T2, ErbB2 (Homo sapiens, UniProt P04626).
T2 construct: made in house; host or cells: baculovirus expression system
Nature of the experiment: ErbB-2 substrate phosphorylation assay (HTRF). The experiment is classed as biochemical. The method, then: as §1, §2, §3, §4, §5, §6, §7

In experiment [3] the target is B-Raf (Homo sapiens, UniProt P15056). Briefly: B-Raf Accelerated MEK ATPase assay (BRAMA), Method A or B. To be noted: Method B: final MEK 150 nM, single end point read. The experiment is classed as biochemical. As for the experimental part:
Compounds of the present invention were tested for B-Raf protein serine kinase inhibitory activity in a B-Raf Accelerated MEK ATPase assay (BRAMA). The BRAMA assay is a high sensitivity assay which measures an intrinsic MEK-mediated ATP hydrolysis uncoupled from downstream ERK phosphorylation by coupling the formation of ADP to NADH oxidation through the enzymes pyruvate kinase and lactate dehydrogenase. When ADP production is initiated by addition of catalytic amounts of an activated Raf enzyme and non-phosphorylated MEK, one observes robust ADP production concomitant with Raf-mediated phosphorylation of MEK.
Method A: Specific details of the assay are disclosed in: C. Rominger, M. Schaber, E. May. Assay for B-Raf Activity Based on Intrinsic MEK ATPase Activity. Statutory Invention Registration 11/084,993 (March, 2005). Method B: The method is the same as method A, but includes the following changes: 1) the assay was performed with a final MEK concentration of 150 nM and 2) the assay was read as single end point instead of a kinetic read.

The test system of experiment [4] is Colo205 tumor cells. Briefly: Cell growth inhibition assay (CellTiter-Glo), Colo205. The class given is cell-based, Human. The settings on record: Homo sapiens, COLO 205, 72 h; 3 days incubation. The method, then: (§8) Human breast tumor cells (BT474) were cultured in RPMI (Mediatech […]), containing 10% FBS (JRH Biosciences 12176) and 1% penicillin-streptomycin (Invitrogen 15140). Human head and neck tumor cells (HN5) were cultured in high glucose DMEM (Mediatech 50-013-PB) containing 10% FBS and 1% penicillin-streptomycin. Human colon tumor cells (Colo205) were cultured in RPMI (Mediatech 50-020-PB) containing 10% FBS and 1% penicillin-streptomycin. Human melanoma cancer cells (SK-MEL-28) were cultured in EMEM with nonessential amino acids (Mediatech 50-011-PB) containing 10% FBS, 1% sodium pyruvate (JT Baker 3354-04), and 1% penicillin-streptomycin. Human melanoma cancer cells (A375P F11s) were cultured in RPMI (Mediatech 50-020-PB) containing 10% FBS, 1% sodium pyruvate, and 1% penicillin-streptomycin. Human colon cancer cells (HT-29) were cultured in high glucose DMEM (Mediatech 50-013-PB) containing 10% FBS and 1% penicillin-streptomycin. Human melanoma cancer cells (SK-MEL-3) were cultured in McCoy's 5A (50-025-PB) containing 15% FBS, and 1% penicillin-streptomycin. All cell lines were maintained at 37° C. in a humidified 5% CO2, 95% air incubator. Cells were harvested using trypsin/EDTA (Invitrogen 25200), counted using a haemocytometer, and plated. For 96-well assays (using white full-area NUNC plates cat. #136102), cells were plated in 105 μL at the following densities (cells/well): HNS, 500; Colo 205, 500; SK-MEL-28, 500; A375P F11s, 500; HT-29, 500; SK-MEL-3, 500; and BT474, 3000. For 384-well assays (white full-area NUNC plates, cat. #781080), cells were plated in 48 μL at the following densities (cells/well): HNS, 500; Colo205, 500; SK-MEL-28, 500; A375P F11s, 500; HT-29, 500; SK-MEL-3, 500; and BT474, 2000.
(§9) The next day, compounds were diluted as follow: For 96-well assays, 13.5 μL of compound in DMSO were diluted using nine (9) serial 1:3 dilutions of 4.5 μL in 9 of DMSO. Medium (270 μL/well of RPMI with 10% FBS and 1% penicillin-streptomycin) was added to the plates. Aliquots (7 μL) were added to cells in the final assay giving a final DMSO concentration of 0.2%. For 384-well assays, 15 μL of compound in DMSO were diluted using nine (9) serial 1:3 dilutions of 5 μL in 10 μL of DMSO, followed by a further dilution of 5 μL of compound with 95 μL of medium, of which 2 μL were added to cells in the final assay giving a final DMSO concentration of 0.2%. Cells were incubated at 37° C., 5% CO2 for 3 days.
(§10) Total ATP was measured (as a surrogate estimate of cell number) using CellTiter-Glo® reagent (Promega G7571). Briefly, plates were removed from the incubator and allowed to equilibrate to room temperature for 30 minutes. CellTiter-Glo® (25 μL or 55 μL for 384-well or 96-well assays, respectively) reagent was added to each well and plates were shaken on an orbital plate shaker for 2 minutes. Plates were incubated without shaking for a further 30 minutes and read on an LJL Analyst GT reader in luminometer mode with an integration time of 0.5 seconds per well. Percent inhibition of cell growth was calculated relative to DMSO vehicle-treated control wells. Concentration of compound required to give 50% inhibition of vehicle-treated control cell growth (IC50) was interpolated using a 4-parameter fit for determining IC50 using the following equation: Y=A +((B−A)/(1+((C/X)̂D))) where […].
A general note: In ATP-based viability assays light output follows the ATP content of the culture.

Experiment [5] relates to SK-MEL-28 tumor cells. Briefly: Cell growth inhibition assay (CellTiter-Glo), SK-MEL-28. The experiment is classed as cell-based, Human. The settings on record: Homo sapiens, SK-MEL-28, 72 h; 3 days incubation. As for the experimental part: as §8, §9, §10

Where only a bound is given, the exact number is not on record here.

Sequence of B-Raf (P15056 whole entry): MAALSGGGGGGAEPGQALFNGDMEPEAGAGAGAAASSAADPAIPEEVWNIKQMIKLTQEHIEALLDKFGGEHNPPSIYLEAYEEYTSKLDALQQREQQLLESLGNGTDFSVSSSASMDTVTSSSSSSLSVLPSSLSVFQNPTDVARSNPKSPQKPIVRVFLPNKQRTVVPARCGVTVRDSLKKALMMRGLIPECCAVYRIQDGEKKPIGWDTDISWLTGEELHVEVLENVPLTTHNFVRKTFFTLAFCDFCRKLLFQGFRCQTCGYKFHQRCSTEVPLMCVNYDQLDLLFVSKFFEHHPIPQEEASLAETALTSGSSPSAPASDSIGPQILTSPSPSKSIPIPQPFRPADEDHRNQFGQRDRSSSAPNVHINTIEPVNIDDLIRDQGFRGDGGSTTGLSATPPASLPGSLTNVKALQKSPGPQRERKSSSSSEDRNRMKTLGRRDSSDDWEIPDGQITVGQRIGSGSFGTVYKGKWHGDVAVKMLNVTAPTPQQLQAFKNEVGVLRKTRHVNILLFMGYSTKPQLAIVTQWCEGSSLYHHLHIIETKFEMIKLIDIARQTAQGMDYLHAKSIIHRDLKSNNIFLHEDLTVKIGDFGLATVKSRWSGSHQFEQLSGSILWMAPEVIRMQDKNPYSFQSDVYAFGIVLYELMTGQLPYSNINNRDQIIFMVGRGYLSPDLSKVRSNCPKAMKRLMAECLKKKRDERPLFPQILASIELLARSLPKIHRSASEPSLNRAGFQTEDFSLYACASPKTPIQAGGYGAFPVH
T1 sequence (P00533 25-1210): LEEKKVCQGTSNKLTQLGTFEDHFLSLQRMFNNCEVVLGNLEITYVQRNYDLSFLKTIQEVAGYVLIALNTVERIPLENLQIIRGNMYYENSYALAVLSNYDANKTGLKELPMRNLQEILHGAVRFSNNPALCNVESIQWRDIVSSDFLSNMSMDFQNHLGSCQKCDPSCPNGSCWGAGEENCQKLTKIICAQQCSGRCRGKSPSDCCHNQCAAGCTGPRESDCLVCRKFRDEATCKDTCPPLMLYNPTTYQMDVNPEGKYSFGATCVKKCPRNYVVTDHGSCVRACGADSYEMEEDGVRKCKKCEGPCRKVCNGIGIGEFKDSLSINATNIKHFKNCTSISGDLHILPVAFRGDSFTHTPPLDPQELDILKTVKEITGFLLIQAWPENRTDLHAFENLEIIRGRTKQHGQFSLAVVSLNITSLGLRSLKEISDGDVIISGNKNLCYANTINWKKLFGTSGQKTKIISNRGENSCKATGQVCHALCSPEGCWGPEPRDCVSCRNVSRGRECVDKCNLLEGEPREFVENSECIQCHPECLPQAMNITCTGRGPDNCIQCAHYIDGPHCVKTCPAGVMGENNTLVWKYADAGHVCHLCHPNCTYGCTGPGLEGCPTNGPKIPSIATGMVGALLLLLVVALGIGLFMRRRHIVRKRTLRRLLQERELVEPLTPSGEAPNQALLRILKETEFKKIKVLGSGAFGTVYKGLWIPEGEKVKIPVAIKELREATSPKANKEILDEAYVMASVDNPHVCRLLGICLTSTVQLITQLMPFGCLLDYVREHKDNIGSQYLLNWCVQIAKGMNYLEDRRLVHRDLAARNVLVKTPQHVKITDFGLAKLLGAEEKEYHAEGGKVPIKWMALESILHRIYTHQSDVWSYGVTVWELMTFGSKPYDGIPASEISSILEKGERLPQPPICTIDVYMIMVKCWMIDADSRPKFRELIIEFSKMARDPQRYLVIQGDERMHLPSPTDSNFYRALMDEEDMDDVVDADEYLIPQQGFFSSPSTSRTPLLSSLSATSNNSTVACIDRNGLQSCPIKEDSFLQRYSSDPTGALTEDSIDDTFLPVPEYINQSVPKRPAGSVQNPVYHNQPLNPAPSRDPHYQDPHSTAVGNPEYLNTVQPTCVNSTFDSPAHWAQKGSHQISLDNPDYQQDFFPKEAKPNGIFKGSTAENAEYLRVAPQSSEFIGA
T2 sequence (P04626 23-1255): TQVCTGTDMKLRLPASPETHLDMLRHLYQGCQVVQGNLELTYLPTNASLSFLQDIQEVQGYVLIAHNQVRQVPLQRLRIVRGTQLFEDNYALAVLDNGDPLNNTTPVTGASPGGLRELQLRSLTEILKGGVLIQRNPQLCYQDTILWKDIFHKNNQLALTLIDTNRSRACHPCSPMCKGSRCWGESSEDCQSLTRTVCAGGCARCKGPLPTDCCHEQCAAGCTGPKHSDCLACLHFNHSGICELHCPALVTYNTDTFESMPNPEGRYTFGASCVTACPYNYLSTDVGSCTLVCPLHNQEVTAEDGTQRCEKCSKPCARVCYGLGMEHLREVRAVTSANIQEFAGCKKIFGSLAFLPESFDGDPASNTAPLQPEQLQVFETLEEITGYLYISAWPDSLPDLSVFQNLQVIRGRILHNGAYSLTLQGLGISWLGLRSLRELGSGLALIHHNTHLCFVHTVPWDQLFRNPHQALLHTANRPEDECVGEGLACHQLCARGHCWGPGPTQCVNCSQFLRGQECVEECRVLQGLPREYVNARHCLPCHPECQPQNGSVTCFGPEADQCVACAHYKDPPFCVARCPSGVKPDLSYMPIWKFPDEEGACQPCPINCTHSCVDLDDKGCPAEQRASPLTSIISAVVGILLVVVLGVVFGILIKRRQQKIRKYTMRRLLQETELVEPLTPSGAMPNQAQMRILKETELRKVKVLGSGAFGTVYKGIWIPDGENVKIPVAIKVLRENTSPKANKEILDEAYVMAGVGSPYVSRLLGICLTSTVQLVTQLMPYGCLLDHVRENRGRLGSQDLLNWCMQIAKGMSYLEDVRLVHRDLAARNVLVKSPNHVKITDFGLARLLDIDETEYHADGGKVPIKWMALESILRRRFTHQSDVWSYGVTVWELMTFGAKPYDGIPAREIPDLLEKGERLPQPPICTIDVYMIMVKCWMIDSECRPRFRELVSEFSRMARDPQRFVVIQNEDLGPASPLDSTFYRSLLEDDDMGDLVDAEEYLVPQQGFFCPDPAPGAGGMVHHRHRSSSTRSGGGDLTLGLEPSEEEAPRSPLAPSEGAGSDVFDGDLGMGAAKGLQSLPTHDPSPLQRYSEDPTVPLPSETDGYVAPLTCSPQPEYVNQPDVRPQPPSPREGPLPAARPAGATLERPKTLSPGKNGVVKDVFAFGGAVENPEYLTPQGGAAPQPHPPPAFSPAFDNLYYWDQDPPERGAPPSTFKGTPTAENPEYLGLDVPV

For `COc1cc(N2CCN(CCS(C)(=O)=O)CC2)c(C)cc1Nc1nccc(-c2sc(N)nc2-c2cccc(NS(=O)(=O)c3c(F)cccc3F)c2)n1` [Example 63], the half-maximal inhibitory concentration (IC50) in experiment [1] was 100 to 1000 nM; in experiment [2], < 100 nM; in experiment [3], 100 to 1000 nM; in experiment [4], 100 to 1000 nM; in experiment [5] it was > 1000 nM.

`COc1ccc(S(=O)(=O)Nc2cccc(-c3nc(C(C)C)sc3-c3ccnc(Nc4ccc(N5CCOCC5)nc4)n3)c2)cc1OC` [Example 104]: the IC50 in experiment [1] is > 1000 nM; in experiment [2], > 1000 nM; in experiment [3], 100 to 1000 nM; in experiment [4] it was 100 to 1000 nM; in experiment [5], > 1000 nM.

Regarding `CC(C)c1nc(-c2ccc(F)c(NS(=O)(=O)c3c(F)cccc3F)c2)c(-c2ccnc(Nc3ncc[nH]3)n2)s1` [Example 147], the half-inhibitory concentration (IC50) in experiment [1] is > 1000 nM; in experiment [2], > 1000 nM; in experiment [3] it was 100 to 1000 nM; in experiment [4], 100 to 1000 nM; in experiment [5], 100 to 1000 nM.

For `CC(C)c1nc(-c2ccc(F)c(NS(=O)(=O)c3ccccc3C(F)(F)F)c2)c(-c2ccnc(Nc3ccc(N4CCOCC4)nc3)n2)s1` [Example 135], the half-inhibitory concentration (IC50) in experiment [1] was > 1000 nM; in experiment [2], 100 to 1000 nM; in experiment [3], < 100 nM; in experiment [4], 100 to 1000 nM; in experiment [5], 100 to 1000 nM.

As to `COc1cc(N2CCN(CCS(C)(=O)=O)CC2)c(C)cc1Nc1nccc(-c2sc(C(C)C)nc2-c2cccc(NS(=O)(=O)c3cccs3)c2)n1` [Example 50], the half-inhibitory concentration (IC50) in experiment [1] is < 100 nM; in experiment [2] it was < 100 nM; in experiment [3], < 100 nM; in experiment [4], < 100 nM; in experiment [5], 100 to 1000 nM.

For the molecule `COc1ccc(S(C)(=O)=O)cc1Nc1nccc(-c2sc(N3CCOCC3)nc2-c2cccc(NS(=O)(=O)c3c(F)cccc3F)c2OC)n1` [Example 168], the IC50 in experiment [1] was > 1000 nM; in experiment [2], > 1000 nM; in experiment [3], < 100 nM; in experiment [5] it was > 1000 nM.

As for `COc1cc(N2CCN(CCS(C)(=O)=O)CC2)c(C)cc1Nc1nccc(-c2sc(C)nc2-c2cccc(NS(=O)(=O)c3c(F)cccc3F)c2)n1` [Example 134], the IC50 was < 100 nM in experiment [1]; 100 to 1000 nM in experiment [2]; 100 to 1000 nM in experiment [3]; 100 to 1000 nM in experiment [4]; 100 to 1000 nM in experiment [5].

`COc1cc(N2CCN(CCS(C)(=O)=O)CC2)c(C)cc1Nc1nccc(-c2sc(C(C)C)nc2-c2cccc(NS(=O)(=O)c3cnn(C)c3)c2)n1` [Example 173]: the IC50 in experiment [1] is > 1000 nM; in experiment [2], 100 to 1000 nM; in experiment [3], 100 to 1000 nM; in experiment [4], 100 to 1000 nM; in experiment [5], 100 to 1000 nM.

`COc1cc(OC2CCN(CCS(C)(=O)=O)CC2)c(C)cc1Nc1nccc(-c2sc(C(C)C)nc2-c2cccc(NS(=O)(=O)c3c(F)cccc3F)c2)n1` [Example 158]: the IC50 in experiment [1], in experiment [2], in experiment [3], in experiment [4] and in experiment [5] was < 100 nM throughout.

Consider `CCc1nc(-c2cccc(CNS(=O)(=O)c3ccccc3)c2)c(-c2ccnc(Nc3ccc(N4CCN(C(C)=O)CC4)nc3)n2)s1` [Example 68], for which the concentration for half-maximal inhibition (IC50) was 100 to 1000 nM in experiment [1]; 100 to 1000 nM in experiment [2]; 100 to 1000 nM in experiment [3]; > 1000 nM in experiment [4]; > 1000 nM in experiment [5].

Regarding `COc1ccc(Nc2nccc(-c3sc(C(C)C)nc3-c3cccc(NS(=O)(=O)Cc4ccccc4)c3)n2)cc1N1CCN(CCS(C)(=O)=O)CC1` [Example 37], the IC50 in experiment [1] was < 100 nM; in experiment [2] it was < 100 nM; in experiment [3], 100 to 1000 nM; in experiment [4] it was > 1000 nM; in experiment [5], > 1000 nM.

For `CC(C)c1nc(-c2ccc(F)c(NS(=O)(=O)c3c(F)cccc3F)c2)c(-c2ccnc(Nc3ccncn3)n2)s1` [Example 148], the IC50 in experiment [1] was > 1000 nM; in experiment [2], > 1000 nM; in experiment [3], 100 to 1000 nM; in experiment [4], 100 to 1000 nM; in experiment [5], 100 to 1000 nM.

With `COc1cc(N2CCC(CCS(C)(=O)=O)CC2)c(C)cc1Nc1nccc(-c2sc(N3CCCC3)nc2-c2cccc(NS(=O)(=O)c3c(F)cccc3F)c2)n1` [Example 137], the IC50 in experiment [2] is > 1000 nM; in experiment [3], 100 to 1000 nM; in experiment [4], < 100 nM; in experiment [5], 100 to 1000 nM.

As usually defined, the IC50 is the point on the concentration scale where inhibition reaches its midpoint. Low readings indicate greater potency in that assay, high ones weaker potency in that assay.

The values are drawn from patent US20110319392A1, “Thiazole Sulfonamide And Oxazole Sulfonamide Kinase Inhibitors” (priority 2009, published 2011).
